In patent US11091486B2, “Process for the preparation of pyrazolo[1,5-a]pyrimidines and salts thereof” (Array BioPharma Inc., priority 2016, dated 2021):

How the values were obtained:
[1] = In vitro metabolic stability in rat liver microsomes (Example 34); assay type: in vitro ADME, Sprague Dawley rat; details: 1 μM, predicted hepatic extraction ratio
Experimental: (§1) In vitro metabolic stabilities were studied at a concentration of 1 μM in the presence of liver microsomes and isolated hepatocytes.
A 100 mM potassium phosphate assay buffer solution (KPB) was prepared as follows. Both KH2PO4 and K2HPO4 were dissolved separately in reagent grade water resulting in final concentrations 100 mM. A 75:25 mixture v/v of K2HPO4:KH2PO4 was prepared and the pH of the solution was adjusted to 7.4 using diluted HCl or diluted NaOH solutions. A stock solution of test compound was prepared at 10 mM (active compound) in DMSO. The stock solution was diluted immediately before use to 2.5 μM using the KPB solution to create the working standard. All test compounds were completely soluble in DMSO by visual inspection at room temperature. […]
(§2) Data were acquired and peak areas were calculated for test compounds and the internal standard using Analyst 1.6.1 software (Sciex). […]
(§3) All calculations were performed using BioAssay Enterprise. The mean peak area ratios were calculated by averaging the peak area ratios (n=2) of test compound and the internal standard for each sample. Percent remaining was calculated by determining the ratio of the peak area ratio at each time point to the peak area ratio of the time-zero samples. The rate of loss of test compound (km) was determined by linear regression of—1n(f(t)) versus time. […] The t½ was determined dividing 1n(2) by km. […]

[2] = tested on: Cryopreserved human hepatocytes; assay: In vitro metabolic stability in human hepatocytes (Example 34); assay type: in vitro ADME; details: 1 μM, predicted hepatic extraction ratio
Experimental: as §1
A stock solution of the test compound was prepared at 10 mM (active compound) in DMSO. The in vitro stability of the test compound (1 μM) was assessed in the presence of hepatocytes as follows. Cryopreserved hepatocytes were thawed, isolated from shipping media and diluted to a density of 1×10^6 viable cells/mL, according to the supplier's guidelines, using Dulbecco's Modified Eagle Medium, 1×, high glucose (DMEM, Invitrogen, Carlsbad, Calif.). Viability was determined by trypan blue exclusion using a hemocytometer (3500 Hausser, VWR, West Chester, Pa.). […]
as §2, §3

Row | Compound | Rat Microsome Clearance (% ER) [1] | Human Hepatocyte Clearance (% ER) [2]
1 | C[C@@H]1CCc2ncc(F)cc2[C@H]2CCCN2c2ccn3ncc(c3n2)C(=O)N1 [Formula I] | 51 % ER | 48 % ER
2 | C[C@H]1CCc2ncc(F)cc2[C@H]2CCCN2c2ccn3ncc(c3n2)C(=O)N1 [formula I′] | 77 % ER | 74 % ER
